Data reported in ChEMBL document CHEMBL1201862, “PubChem BioAssay data set” (2004).
Values belong to the compound of their own block, whether it stands above or below them. Calls of active or inactive are those of the source.

Columns and labels:
[1] = molecular target: T1, Kappa-type opioid receptor (Homo sapiens, UniProt P41145); experiment: SAR analysis of Antagonists of the Kappa Opioid Receptor (KOR) using an Image-Based Assay - Set 2. [Related pubchem assays (depositor defined):AID1777, AID1785, AID1786, AID1966, AID2133, AID2136, AID2284, AID2285, AID2348]; format: functional
T1 sequence (P41145 whole entry): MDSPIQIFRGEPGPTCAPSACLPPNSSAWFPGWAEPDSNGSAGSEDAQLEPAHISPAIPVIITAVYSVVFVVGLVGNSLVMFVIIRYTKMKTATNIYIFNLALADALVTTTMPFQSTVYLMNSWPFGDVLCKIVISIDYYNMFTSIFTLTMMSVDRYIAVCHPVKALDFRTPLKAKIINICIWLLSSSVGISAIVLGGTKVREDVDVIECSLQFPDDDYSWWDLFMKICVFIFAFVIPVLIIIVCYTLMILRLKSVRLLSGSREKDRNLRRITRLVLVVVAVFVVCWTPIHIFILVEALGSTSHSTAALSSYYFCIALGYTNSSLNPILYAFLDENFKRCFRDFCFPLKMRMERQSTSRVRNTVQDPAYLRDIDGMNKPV

[2] = molecular target: Delta-type opioid receptor (Homo sapiens, UniProt P41143); experiment: SAR Analysis of Antagonists of the DOR Receptor using an Image-Based Assay - Set 2. [Related pubchem assays (depositor defined):AID1777, AID1785, AID1786, AID1966, AID2133, AID2136, AID2284, AID2285, AID2357]; format: functional
Delta-type opioid receptor, sequence (P41143 whole entry): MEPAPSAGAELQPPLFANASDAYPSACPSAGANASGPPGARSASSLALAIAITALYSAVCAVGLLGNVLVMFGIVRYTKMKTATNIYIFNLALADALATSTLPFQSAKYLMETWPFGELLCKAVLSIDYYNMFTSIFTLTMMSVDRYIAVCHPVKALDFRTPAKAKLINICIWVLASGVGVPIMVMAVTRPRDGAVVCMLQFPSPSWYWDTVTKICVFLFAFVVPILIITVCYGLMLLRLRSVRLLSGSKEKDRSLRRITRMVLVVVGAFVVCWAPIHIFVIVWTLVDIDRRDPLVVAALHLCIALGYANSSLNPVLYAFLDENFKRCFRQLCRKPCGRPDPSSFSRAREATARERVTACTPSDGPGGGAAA

[3] = molecular target: T1, Kappa-type opioid receptor; experiment: SAR analysis of small molecule agonists of the kappa opioid receptor via a luminescent beta-arrestin assay - Set 2. [Related pubchem assays (depositor defined):AID1777, AID1785, AID1786, AID1966, AID2133, AID2136, AID2284, AID449737]; format: functional
Exodeoxyribonuclease V = Exodeoxyribonuclease V (Escherichia coli (strain K12), UniProt P04993+P07648+P08394); experiment: RecBCD inhibition via phage-restricted bacterial growth – absorbance, V66 E. coli, mutant T4 phage, counter-screen for AddAB inhibitor project, dose response (AID 492957); format: functional, cell-based, Escherichia coli str. K-12 substr. MG1655
[4] = Counterscreen for AddAB inhibitors: absorbance-based bacterial cell-based high throughput dose response assay for inhibitors of bacterial viability. [Related pubchem assays (depositor defined):AID435030, AID449728, AID449731, AID488942, AID488955, AID488956]; format: functional
Prothrombin = Prothrombin (Bos taurus, UniProt P00735); experiment: thrombin protease inhibitors – biochemical, fluorescence polarization, uHTS hits, dose response (AID 602369); format: functional
Genome polyprotein = Genome polyprotein (dengue virus type 2, UniProt P29990); experiment: flavivirus cap methylation enzyme inhibition – biochemical, confirmation dose response, primary screen (AID 588689); format: functional
[5] = molecular target: Intestinal-type alkaline phosphatase (Mus musculus, UniProt P24822); experiment: mouse intestinal alkaline phosphatase activators, dose response, biochemical, luminescence, uHTS hits (AID 488783); format: functional
ORF 73 = ORF 73 (Human herpesvirus 8, UniProt O40947); experiment: KSHV LANA DNA-binding disruption – biochemical, fluorescence polarization, cherry-picked samples, dose response (AID 504725); set-up: species or system Human gammaherpesvirus 8;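 note: fluorescence polarization of a labeled DNA duplex reporting LANA DNA binding; potency is for inhibitors that block LANA binding to the DNA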
Phospholipase A2 = Phospholipase A2 (Homo sapiens, UniProt P04054); format: functional;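 note: confirmatory dose-response counterscreen on phospholipase A2, testing hits that came from an ultra-high-throughput screen for ATG4B inhibitors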
Vero = experiment: viability of Vero cells under compound – cytotoxicity control for flavivirus capping enzyme inhibitors (AID 588742); format: functional; details: Chlorocebus sabaeus
Large T antigen = Large T antigen (Simian virus 40, UniProt P03070); format: functional, Betapolyomavirus macacae;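 note: Confirmatory-stage PubChem screen for compounds that inhibit SV40 T antigen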
Large T antigen, sequence (P03070 whole entry): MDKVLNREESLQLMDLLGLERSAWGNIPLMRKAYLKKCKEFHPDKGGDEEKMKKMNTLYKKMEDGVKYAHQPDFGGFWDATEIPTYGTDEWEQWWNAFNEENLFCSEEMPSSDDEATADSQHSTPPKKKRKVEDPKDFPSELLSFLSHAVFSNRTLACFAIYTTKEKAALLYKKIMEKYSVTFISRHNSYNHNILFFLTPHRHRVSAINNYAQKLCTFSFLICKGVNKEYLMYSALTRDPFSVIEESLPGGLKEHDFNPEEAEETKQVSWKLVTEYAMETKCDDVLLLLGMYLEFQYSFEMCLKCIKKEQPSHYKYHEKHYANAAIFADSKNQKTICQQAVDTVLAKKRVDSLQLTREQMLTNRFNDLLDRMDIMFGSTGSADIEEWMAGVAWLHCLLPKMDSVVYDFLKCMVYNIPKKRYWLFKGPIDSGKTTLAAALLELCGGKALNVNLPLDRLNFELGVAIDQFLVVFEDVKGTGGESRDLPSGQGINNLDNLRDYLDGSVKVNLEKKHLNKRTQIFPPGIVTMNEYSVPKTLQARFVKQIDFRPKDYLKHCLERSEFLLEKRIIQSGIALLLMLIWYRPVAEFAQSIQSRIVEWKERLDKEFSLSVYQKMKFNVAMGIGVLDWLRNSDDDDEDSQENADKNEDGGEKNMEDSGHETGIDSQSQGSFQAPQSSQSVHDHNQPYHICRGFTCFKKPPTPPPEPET

[6] = molecular target: T2, Alkaline phosphatase, tissue-nonspecific isozyme (Homo sapiens, UniProt P05186); experiment: activation of tissue-nonspecific alkaline phosphatase – biochemical, TNAP isozyme, mouse IAP uHTS hits, selectivity assay for mouse IAP activator project, dose response (AID 488880); format: functional
T2 sequence (P05186 whole entry): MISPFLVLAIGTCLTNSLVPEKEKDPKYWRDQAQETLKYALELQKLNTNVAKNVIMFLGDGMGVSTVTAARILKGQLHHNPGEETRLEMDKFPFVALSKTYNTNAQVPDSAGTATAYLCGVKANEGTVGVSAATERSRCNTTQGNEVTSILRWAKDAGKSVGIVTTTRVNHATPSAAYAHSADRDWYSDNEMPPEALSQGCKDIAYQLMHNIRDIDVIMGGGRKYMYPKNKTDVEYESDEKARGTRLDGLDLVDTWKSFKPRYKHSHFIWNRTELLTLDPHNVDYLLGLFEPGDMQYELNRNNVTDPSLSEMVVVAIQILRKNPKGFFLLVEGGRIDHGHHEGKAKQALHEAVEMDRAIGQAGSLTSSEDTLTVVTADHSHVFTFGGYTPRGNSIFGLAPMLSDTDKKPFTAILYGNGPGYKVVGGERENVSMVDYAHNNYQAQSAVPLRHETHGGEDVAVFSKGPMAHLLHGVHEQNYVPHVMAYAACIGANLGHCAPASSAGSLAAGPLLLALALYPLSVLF

[7] = molecular target: 26S proteasome non-ATPase regulatory subunit 14 (Homo sapiens, UniProt O00487); experiment: inhibition of proteasome subunit RPN11 – biochemical, fluorescence polarization, uHTS hits, confirmation (AID 602368); format: functional
26S proteasome non-ATPase regulatory subunit 14, sequence (O00487 whole entry): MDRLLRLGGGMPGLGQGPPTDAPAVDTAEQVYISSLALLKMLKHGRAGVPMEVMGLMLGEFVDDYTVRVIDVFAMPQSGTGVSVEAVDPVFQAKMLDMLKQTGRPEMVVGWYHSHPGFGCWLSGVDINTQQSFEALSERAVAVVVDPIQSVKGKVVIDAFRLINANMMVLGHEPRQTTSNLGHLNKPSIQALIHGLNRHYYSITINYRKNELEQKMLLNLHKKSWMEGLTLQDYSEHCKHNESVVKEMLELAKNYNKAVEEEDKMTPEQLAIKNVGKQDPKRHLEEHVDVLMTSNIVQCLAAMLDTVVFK

[8] = molecular target: Intestinal-type alkaline phosphatase (Homo sapiens, UniProt P09923); experiment: activation of human intestinal alkaline phosphatase – biochemical, dose response (AID 488873); format: functional
[9] = molecular target: 72 kDa type IV collagenase (Homo sapiens, UniProt P08253); experiment: Dose Response validation of uHTS RPN11 inhibitor hits using a MMP-2 Fluorescence assay.; format: functional
Cysteine protease ATG4B = molecular target: T3, Cysteine protease ATG4B (Homo sapiens, UniProt Q9Y4P1); format: functional;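 note: Fluorescence-based dose-response confirmation assay measuring inhibition of ATG4B activity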
T3 sequence (Q9Y4P1 whole entry): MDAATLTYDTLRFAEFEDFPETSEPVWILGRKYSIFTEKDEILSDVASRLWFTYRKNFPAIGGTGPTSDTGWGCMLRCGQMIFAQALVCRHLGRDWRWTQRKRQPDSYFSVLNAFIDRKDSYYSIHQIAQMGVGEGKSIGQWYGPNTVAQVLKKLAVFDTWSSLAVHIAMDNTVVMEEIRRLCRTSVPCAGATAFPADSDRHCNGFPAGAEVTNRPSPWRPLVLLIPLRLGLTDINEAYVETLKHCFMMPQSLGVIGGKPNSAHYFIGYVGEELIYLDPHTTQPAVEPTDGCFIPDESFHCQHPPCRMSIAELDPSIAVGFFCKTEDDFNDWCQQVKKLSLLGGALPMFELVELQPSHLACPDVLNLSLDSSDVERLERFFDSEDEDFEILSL

Beta-galactosidase = Beta-galactosidase (Escherichia coli, UniProt Q8VNN2); experiment: detection-enzyme interference by beta-gal modulators – biochemical, E. coli enzyme, set 3, artefact control for CCR6 antagonist project, dose response (AID 504712); format: functional
[10] = Fluorescence-based cell-based high throughput dose response assay for inhibitors of the interaction of nucleotide-binding oligomerization domain containing 2 (NOD2) and the receptor-interacting serine-threonine kinase 2 (RIPK2).; format: functional; details: Homo sapiens
[11] = viability of HCT116 lacking mutant beta-catenin – cell-based, human colon tumor, dose response (AID 1045); format: functional;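 note: HCT116 colon tumor cells with beta catenin knocked out; cells exposed to compound for 60 hours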
[12] = viability of PTEN-deleted HCT116 cells – cell-based, HCT116 PTEN knockout, dose response (AID 1047); format: functional;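 note: HCT116 colon tumor cells with PTEN knocked out; cells exposed to compound for 60 hours before readout; potency for loss of cell viability measured by luminescence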
[13] = molecular target: T4, Voltage-gated N-type calcium channel alpha-1B subunit/Amyloid beta A4 precursor protein-binding family A member 1 (Homo sapiens, UniProt Q00975+Q02410); format: protein assay
T4 sequence (Q00975 whole entry): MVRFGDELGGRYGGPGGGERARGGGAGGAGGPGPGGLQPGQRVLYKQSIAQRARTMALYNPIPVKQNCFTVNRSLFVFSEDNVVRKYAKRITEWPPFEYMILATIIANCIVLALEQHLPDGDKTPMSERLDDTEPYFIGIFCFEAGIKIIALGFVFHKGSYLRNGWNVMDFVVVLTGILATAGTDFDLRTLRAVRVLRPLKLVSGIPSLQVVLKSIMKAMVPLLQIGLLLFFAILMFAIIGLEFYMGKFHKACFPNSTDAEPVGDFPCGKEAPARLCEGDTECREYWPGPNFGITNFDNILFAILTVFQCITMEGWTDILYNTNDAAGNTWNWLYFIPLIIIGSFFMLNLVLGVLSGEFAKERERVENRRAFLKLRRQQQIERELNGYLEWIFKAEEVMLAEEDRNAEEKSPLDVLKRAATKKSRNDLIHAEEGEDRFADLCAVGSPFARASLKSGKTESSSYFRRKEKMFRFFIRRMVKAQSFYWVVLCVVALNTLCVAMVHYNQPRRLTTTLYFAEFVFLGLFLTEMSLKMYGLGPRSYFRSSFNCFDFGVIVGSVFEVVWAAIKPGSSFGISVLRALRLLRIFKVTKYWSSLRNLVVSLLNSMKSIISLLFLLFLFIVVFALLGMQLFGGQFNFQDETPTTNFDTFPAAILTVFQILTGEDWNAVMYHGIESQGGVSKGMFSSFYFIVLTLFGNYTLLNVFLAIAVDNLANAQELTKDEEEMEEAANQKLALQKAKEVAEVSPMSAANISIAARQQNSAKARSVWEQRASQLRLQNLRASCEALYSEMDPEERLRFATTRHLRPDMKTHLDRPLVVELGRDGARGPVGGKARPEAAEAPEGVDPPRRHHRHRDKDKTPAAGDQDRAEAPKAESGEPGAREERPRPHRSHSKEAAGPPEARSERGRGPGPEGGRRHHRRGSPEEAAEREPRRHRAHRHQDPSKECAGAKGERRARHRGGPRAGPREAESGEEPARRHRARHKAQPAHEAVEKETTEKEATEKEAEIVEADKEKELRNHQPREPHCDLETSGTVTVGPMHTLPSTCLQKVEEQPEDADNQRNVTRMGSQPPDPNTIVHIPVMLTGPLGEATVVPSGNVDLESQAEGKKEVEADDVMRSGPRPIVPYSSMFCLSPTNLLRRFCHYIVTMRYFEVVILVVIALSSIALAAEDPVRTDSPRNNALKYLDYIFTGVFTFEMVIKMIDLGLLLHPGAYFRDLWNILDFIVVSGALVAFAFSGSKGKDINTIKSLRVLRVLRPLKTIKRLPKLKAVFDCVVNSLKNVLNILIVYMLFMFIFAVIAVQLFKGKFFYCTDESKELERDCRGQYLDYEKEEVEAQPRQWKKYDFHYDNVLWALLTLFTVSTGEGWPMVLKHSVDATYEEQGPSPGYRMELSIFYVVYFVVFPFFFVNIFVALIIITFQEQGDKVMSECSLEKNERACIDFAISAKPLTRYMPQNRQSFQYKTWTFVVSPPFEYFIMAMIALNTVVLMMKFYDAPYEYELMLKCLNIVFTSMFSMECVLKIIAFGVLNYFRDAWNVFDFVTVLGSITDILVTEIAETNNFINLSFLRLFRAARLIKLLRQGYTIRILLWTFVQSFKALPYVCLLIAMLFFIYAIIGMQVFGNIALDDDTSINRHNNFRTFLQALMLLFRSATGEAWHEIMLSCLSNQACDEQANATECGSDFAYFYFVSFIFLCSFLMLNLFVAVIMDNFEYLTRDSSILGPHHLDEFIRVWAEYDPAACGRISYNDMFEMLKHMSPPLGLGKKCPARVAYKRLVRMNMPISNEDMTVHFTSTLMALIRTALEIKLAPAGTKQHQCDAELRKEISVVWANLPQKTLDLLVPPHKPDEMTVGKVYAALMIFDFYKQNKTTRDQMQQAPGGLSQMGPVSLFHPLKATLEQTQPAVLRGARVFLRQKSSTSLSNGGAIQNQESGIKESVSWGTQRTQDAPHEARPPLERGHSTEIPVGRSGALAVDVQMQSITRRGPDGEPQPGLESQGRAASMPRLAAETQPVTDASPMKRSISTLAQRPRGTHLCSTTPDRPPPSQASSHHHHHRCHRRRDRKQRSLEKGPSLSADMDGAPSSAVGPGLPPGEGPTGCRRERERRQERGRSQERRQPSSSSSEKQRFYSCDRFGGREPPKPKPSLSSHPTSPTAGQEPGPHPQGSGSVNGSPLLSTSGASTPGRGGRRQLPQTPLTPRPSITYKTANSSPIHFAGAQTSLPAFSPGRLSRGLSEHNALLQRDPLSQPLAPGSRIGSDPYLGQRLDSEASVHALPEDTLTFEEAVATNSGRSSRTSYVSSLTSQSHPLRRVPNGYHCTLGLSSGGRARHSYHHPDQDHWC
T4 sequence (Q02410 whole entry): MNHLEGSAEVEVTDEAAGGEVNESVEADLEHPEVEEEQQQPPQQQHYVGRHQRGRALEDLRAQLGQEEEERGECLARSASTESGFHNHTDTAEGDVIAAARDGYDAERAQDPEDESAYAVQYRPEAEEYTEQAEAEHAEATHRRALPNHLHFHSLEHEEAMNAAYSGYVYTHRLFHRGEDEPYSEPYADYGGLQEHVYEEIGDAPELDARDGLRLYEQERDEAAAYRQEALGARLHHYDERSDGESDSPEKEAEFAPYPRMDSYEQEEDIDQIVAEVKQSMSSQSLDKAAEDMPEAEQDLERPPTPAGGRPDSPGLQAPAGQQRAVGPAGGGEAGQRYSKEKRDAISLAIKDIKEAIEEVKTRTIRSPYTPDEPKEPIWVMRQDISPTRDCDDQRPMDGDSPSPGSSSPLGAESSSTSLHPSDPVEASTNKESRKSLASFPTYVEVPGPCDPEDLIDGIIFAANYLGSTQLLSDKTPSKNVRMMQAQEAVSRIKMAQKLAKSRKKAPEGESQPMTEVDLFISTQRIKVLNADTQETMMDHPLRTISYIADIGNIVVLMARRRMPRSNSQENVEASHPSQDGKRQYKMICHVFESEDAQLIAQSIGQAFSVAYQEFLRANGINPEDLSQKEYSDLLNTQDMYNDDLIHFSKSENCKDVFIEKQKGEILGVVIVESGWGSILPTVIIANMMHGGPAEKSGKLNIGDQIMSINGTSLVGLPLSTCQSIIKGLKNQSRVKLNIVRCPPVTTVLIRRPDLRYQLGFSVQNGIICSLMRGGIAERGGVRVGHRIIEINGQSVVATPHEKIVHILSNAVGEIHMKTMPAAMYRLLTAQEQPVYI

[14] = molecular target: T4, Voltage-gated N-type calcium channel alpha-1B subunit/Amyloid beta A4 precursor protein-binding family A member 1; format: protein assay; remark: listed apart in the source
[15] = molecular target: T5, Mannose-6-phosphate isomerase (Homo sapiens, UniProt P34949); experiment: MPI enzyme activity inhibition – biochemical, fluorescence intensity, coupled assay, primary screen (AID 1209)
T5 sequence (P34949 whole entry): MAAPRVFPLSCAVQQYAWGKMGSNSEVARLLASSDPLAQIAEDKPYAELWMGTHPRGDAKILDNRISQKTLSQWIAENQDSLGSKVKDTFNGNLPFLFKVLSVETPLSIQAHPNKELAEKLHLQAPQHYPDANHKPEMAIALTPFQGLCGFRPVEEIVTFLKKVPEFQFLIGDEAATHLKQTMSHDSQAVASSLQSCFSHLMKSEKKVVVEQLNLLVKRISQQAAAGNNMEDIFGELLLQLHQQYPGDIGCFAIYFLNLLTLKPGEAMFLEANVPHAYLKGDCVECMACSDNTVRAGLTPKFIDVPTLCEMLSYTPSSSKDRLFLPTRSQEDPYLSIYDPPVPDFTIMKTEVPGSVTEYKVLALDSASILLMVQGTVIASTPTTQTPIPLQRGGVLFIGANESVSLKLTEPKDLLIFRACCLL

[16] = antiviral efficacy and BSC cell toxicity – BSC cells, SV40 T antigen inhibitor project, confirmation (AID 2615); format: functional, cell-based
[17] = molecular target: Glucose-6-phosphate 1-dehydrogenase (Homo sapiens, UniProt P11413); experiment: inhibition of Homo sapiens G6PD, dose series – biochemical, fluorescence, selectivity assay for P. falciparum G6PD inhibitor project, dose response (AID 504792); format: functional

- IC50 [1]: > 32 µM (inactive)
- IC50 [2]: > 32 µM (inactive)
- EC50 [3]: 0.0523 µM (active)
SMILES: CC[C@@](C)(C(=O)Nc1ccc(Br)cc1)N(Cc1ccco1)C(=O)c1ccccn1

SMILES: O=C(NNC(=O)c1cc2ccccc2cc1O)Nc1ccc(Br)cc1
- IC50 (Exodeoxyribonuclease V): > 119 µM (inactive)
- IC50 [4]: > 119 µM (inactive)

- IC50 (Prothrombin): 98.5 µM (active)
- IC50 (Genome polyprotein): 79.4 µM (active)
- EC50 [5]: 51.2 µM (active)
- AC50 (ORF 73): 66.3 µM (active)
- IC50 (Phospholipase A2): 26.6 µM (inactive)
- IC50 (Large T antigen): 47.9 µM (active)
- EC50 [6]: 62.2 µM (active)
- IC50 [7]: 14.6 µM (active)
- EC50 [8]: 50.8 µM (active)
- IC50 [9]: 0.968 µM (active)
- IC50 (Cysteine protease ATG4B): 11 µM (active)
SMILES: CC(C(=O)Nc1ccc(C(=O)O)c(O)c1)N1C(=O)/C(=C\c2ccco2)SC1=S (configuration not stated)
- CC50 (Vero): > 40 µM (active)

SMILES: ClC(Cl)(c1nnnn1-c1ccccc1)c1nnnn1-c1ccccc1
- IC50 (Beta-galactosidase): > 66.6 µM (inactive)
- IC50 [10]: 5.41 µM (active)
- EC50 [11]: 9.79 µM (active)
- EC50 [12]: 10.8 µM (active)
- IC50 [13]: 4.38 µM (active)
- IC50 [14]: 5.93 µM (active)
- IC50 (Large T antigen): 5.47 µM (active)
- IC50 [15]: > 50 µM (not active)
- IC50 [16]: 10 µM (active)
- IC50 [17]: > 80 µM (inactive)
